{"source": "paper PMC9406199", "about": "“Conformational Plasticity of Centrin 1 from Toxoplasma gondii in Binding to the Centrosomal Protein SFI1” (Biomolecules, 2022)", "key": {"[1]": {"molecular_target": "T1, TgCEN1 (recombinant, lacking the first 21 residues) (Toxoplasma gondii, UniProt A0A125YHX7)", "T1 construct": "TgCEN1 (lacking the first 21 residues) and its N-terminal (N-TgCEN1, 22–94 aa) and C-terminal (C-TgCEN1, 95–169 aa) domains; made in house", "T1 sequence (A0A125YHX7 22-169)": "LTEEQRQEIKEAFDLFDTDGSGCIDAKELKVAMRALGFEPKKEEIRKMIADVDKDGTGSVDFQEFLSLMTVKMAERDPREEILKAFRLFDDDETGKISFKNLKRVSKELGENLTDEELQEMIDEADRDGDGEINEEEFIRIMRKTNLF", "assay": "ITC titration of TgSFI1 peptides into TgCEN1", "assay_type": "binding", "conditions": "for TΔS: T 298 K", "description": "(§1) The recombinant TgCEN1 (lacking the first 21 residues) and its N-terminal (N-TgCEN1, 22–94 aa) and C-terminal (C-TgCEN1, 95–169 aa) domains were purified as previously described. The TgSFI1 peptides were synthesized by GenScript U.S.A. Inc. (Piscataway, NJ, USA). The concentration of each peptide was determined using their predicted molar extinction coefficient at 280 nm.\n(§2) Isothermal titration calorimetry (ITC) experiments were performed on a MicroCal PEAQ-ITC instrument (Malvern Ltd., Malvern, UK) at 25 °C. Protein samples and peptides were solubilized in the same buffer containing 50 mM Tris–HCl, 150 mM KCl pH 7.5 and 5 mM CaCl2 or 5 mM EGTA. All the samples were filtered and degassed before use, and the pH was carefully determined to exclude any possible pH-related effect on ITC experiments.\n(§3) A typical ITC experiment was performed by titrating 200 μL of a 30–50 μM protein solution with a 1 or 1.5 μL injection of 0.3–0.5 mM peptide (total injections 39 or 26, respectively) with an initial delay of 120 s and keeping a time gap of 120 s between injections. A reference injection of peptide into buffer without centrin was performed and subtracted from each experiment. The resulting curves were fitted to calculate apparent dissociation constants Kd, enthalpy changes (ΔH), and the apparent entropy change (ΔS) using the software MicroCal ITC Origin 7 Analysis Software (MicroCal, Malvern Ltd., Malvern, UK). All measurements were repeated in triplicate using at least two different protein preparations and the error was calculated as the mean standard error of the three measurements."}, "[2]": {"molecular_target": "T2, C-TgCEN1 (C-terminal domain, 95–169 aa) (Toxoplasma gondii, UniProt A0A125YHX7)", "T2 construct": "C-terminal (C-TgCEN1, 95–169 aa); made in house", "T2 sequence (A0A125YHX7 95-169)": "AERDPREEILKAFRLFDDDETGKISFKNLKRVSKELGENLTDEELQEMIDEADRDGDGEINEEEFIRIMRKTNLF", "assay": "ITC titration of TgSFI1 peptides into C-TgCEN1", "assay_type": "binding", "conditions": "SEM; for Kd / n (stoichiometry of binding) / ΔH: 25 °C; for Kd / n (stoichiometry of binding): 50 mM Tris-HCl; for TΔS: T 298 K", "description": "as §1, §2, §3"}, "[3]": {"molecular_target": "T3, N-TgCEN1 (N-terminal domain, 22–94 aa) (Toxoplasma gondii, UniProt A0A125YHX7)", "T3 construct": "N-terminal (N-TgCEN1, 22–94 aa); made in house", "T3 sequence (A0A125YHX7 22-94)": "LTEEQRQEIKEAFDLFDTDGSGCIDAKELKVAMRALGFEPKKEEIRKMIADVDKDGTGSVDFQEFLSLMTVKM", "assay": "ITC titration of TgSFI1 peptides into N-TgCEN1", "assay_type": "binding", "conditions": "SEM", "description": "as §1, §2, §3"}, "[4]": {"molecular_target": "TgSFI1 R16 peptide R16 (Toxoplasma gondii) (UniProt S8F258)", "sequence (S8F258 whole entry)": "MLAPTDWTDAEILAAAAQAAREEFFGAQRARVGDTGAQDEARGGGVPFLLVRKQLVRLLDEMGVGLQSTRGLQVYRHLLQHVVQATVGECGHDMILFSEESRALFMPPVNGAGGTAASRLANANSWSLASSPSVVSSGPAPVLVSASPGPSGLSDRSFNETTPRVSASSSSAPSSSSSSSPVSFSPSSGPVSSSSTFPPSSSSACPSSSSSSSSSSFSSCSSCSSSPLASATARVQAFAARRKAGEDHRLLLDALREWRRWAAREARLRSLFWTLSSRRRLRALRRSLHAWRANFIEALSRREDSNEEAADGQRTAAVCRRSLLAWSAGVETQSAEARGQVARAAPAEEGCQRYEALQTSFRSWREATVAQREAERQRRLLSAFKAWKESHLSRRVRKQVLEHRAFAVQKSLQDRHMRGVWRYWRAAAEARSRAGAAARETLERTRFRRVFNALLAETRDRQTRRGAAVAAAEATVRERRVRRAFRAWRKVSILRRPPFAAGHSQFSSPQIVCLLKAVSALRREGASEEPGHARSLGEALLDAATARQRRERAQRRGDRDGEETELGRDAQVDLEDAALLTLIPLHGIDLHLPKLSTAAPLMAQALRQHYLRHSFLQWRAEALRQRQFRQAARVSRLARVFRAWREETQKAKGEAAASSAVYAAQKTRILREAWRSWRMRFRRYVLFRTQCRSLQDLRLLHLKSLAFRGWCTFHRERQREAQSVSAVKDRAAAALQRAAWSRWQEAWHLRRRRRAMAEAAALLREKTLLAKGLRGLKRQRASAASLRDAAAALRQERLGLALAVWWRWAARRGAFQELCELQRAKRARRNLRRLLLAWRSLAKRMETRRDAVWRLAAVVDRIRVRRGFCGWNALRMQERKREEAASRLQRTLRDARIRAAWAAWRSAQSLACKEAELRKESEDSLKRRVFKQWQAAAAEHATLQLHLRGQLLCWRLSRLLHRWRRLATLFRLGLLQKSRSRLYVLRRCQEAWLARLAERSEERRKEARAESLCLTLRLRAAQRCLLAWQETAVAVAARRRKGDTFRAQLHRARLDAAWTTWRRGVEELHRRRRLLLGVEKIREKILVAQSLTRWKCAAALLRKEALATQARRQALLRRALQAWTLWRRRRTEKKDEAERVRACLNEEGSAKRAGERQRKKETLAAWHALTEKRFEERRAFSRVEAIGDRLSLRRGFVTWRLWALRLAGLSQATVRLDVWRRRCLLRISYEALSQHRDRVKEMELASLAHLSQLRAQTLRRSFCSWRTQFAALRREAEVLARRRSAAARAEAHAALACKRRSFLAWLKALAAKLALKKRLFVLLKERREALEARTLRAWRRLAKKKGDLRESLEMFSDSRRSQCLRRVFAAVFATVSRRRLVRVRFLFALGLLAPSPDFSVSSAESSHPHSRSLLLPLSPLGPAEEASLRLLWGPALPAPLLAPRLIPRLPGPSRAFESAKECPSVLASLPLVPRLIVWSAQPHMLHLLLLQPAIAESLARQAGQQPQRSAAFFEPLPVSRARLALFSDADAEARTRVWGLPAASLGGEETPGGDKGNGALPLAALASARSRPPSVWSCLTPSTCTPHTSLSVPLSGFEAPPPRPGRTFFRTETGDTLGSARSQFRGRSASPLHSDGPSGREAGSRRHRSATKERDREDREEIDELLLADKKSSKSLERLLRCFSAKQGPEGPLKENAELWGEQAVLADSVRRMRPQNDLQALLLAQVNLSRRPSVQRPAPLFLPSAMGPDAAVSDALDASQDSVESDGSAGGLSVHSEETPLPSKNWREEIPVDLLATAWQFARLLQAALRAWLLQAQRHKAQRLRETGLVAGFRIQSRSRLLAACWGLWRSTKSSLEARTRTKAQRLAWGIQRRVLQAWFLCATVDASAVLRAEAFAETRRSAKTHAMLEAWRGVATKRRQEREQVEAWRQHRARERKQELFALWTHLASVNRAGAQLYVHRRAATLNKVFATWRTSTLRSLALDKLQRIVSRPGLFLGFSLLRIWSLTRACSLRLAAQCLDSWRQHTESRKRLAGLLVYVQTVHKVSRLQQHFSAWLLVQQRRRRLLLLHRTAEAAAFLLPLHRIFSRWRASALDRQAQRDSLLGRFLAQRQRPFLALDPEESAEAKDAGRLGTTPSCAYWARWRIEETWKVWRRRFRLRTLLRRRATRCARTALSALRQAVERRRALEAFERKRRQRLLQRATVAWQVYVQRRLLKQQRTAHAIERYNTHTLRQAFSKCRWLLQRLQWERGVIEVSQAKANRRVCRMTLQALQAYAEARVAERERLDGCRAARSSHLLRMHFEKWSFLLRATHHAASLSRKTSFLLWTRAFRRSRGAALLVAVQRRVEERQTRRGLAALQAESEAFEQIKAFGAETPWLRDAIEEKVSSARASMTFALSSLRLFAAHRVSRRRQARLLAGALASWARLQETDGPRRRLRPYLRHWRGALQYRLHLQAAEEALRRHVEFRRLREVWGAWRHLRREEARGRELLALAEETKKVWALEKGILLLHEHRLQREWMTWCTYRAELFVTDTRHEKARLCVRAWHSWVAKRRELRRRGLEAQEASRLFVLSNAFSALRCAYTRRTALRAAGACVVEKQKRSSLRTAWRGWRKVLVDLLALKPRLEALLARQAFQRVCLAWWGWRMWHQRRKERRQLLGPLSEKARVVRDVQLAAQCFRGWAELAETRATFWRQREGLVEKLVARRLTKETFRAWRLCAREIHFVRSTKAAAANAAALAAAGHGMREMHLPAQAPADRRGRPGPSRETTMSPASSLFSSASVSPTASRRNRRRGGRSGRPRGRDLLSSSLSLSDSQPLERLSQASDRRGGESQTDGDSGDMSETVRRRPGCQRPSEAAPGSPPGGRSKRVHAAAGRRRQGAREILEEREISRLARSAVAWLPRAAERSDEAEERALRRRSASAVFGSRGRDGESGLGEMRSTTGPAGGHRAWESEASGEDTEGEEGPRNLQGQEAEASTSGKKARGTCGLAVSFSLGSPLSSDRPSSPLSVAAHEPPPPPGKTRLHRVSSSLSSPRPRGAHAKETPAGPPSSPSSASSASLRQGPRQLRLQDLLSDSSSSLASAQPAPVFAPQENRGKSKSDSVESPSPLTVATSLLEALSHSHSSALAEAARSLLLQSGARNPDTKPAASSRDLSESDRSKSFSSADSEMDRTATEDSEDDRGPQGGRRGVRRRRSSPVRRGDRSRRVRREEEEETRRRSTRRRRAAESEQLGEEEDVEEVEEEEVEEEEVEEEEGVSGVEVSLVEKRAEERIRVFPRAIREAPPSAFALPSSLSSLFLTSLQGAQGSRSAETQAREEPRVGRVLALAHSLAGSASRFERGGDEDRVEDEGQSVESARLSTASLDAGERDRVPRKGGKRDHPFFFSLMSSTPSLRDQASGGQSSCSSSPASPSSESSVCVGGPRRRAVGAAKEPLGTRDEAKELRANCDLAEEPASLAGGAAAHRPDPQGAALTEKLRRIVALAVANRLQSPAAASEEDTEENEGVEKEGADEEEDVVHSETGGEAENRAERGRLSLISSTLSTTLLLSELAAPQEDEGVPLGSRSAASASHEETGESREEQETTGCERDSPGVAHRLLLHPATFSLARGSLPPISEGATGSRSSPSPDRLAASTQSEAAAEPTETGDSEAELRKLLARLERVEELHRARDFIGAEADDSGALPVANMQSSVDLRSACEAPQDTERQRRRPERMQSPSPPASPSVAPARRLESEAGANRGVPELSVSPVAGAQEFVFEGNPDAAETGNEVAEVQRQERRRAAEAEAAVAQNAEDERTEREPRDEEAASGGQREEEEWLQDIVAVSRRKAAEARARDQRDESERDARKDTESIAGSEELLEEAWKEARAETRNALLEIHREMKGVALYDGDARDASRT", "assay": "ITC"}, "[5]": {"conditions": "25 °C, 50 mM Tris-HCl, 150 mM KCl pH 7.5, 5 mM CaCl2, single binding site, mean ± SE of triplicate, SEM"}, "[6]": {"conditions": "Ca2+-bound TgCEN1, single exothermic event, order of magnitude in text"}, "[7]": {"conditions": "150 mM KCl pH 7.5, 5 mM CaCl2, mean ± SE of triplicate"}, "[8]": {"conditions": "25 °C, 50 mM Tris-HCl, 150 mM KCl pH 7.5, 5 mM CaCl2, first site (n1) of two-step binding, mean ± SE of triplicate, SEM"}, "[9]": {"conditions": "25 °C, 50 mM Tris-HCl, 150 mM KCl pH 7.5, 5 mM CaCl2, second site (n2) of two-step binding, mean ± SE of triplicate, SEM"}, "[10]": {"conditions": "25 °C, 50 mM Tris-HCl, 150 mM KCl pH 7.5, 5 mM EGTA, mean ± SE of triplicate, dash = no binding observed, SEM"}, "[11]": {"conditions": "150 mM KCl pH 7.5, 5 mM EGTA, mean ± SE of triplicate, dash = no binding observed"}, "[12]": {"conditions": "pH 7.5, 5 mM CaCl2, mean ± SE of triplicate"}, "[13]": {"conditions": "pH 7.5, 5 mM EGTA, mean ± SE of triplicate"}}, "note": "Where no end group is shown, it is not given here."}
{"substance": "VVEKQKRSSLRTAWRGWR [R31]", "values": [{"measurement": "Kd", "setting": "[1]; [5]", "value": "2900 ± 100", "unit": "nM"}, {"measurement": "Kd", "setting": "[1]; [6]", "value": "~1000", "unit": "nM"}, {"measurement": "Kd", "setting": "[2]; [7]", "value": "1900 ± 100", "unit": "nM"}]}
{"substance": "RVEAIGDRLSLRRGFVTWRL [R17]", "values": [{"measurement": "Kd", "setting": "[1]; [5]", "value": "800 ± 200", "unit": "nM"}, {"measurement": "Kd", "setting": "[2]; [7]", "value": "2700 ± 100", "unit": "nM"}]}
{"substance": "LATQARRQALLRRALQAWTL [R16]", "values": [{"measurement": "Kd", "setting": "[1]; [8]", "value": "9 ± 1", "unit": "nM"}, {"measurement": "Kd", "setting": "[1]; [9]", "value": "500 ± 100", "unit": "nM"}, {"measurement": "Kd", "setting": "[1]; [10]", "value": "3400 ± 300", "unit": "nM"}, {"measurement": "Kd", "setting": "[3]; 25 °C, 50 mM Tris-HCl, 150 mM KCl pH 7.5, 5 mM CaCl2, mean ± SE of triplicate, dash = no binding observed", "value": "400 ± 100", "unit": "nM"}, {"measurement": "Kd", "setting": "[2]; [7]", "value": "6 ± 1", "unit": "nM"}, {"measurement": "Kd", "setting": "[2]; [11]", "value": "9100 ± 800", "unit": "nM"}]}
{"substance": "LQRAKRARRNLRRLLLAWRS [R10]", "values": [{"measurement": "n (stoichiometry of binding), n1", "setting": "[1]; [8]", "value": "n1 = 0.7 ± 0.1"}, {"measurement": "n (stoichiometry of binding), n2", "setting": "[1]; [9]", "value": "n2 = 0.9 ± 0.1"}, {"measurement": "n (stoichiometry of binding)", "setting": "[1]; 25 °C, 50 mM Tris-HCl, 150 mM KCl pH 7.5, 5 mM EGTA, mean ± SE of triplicate, SEM", "value": "0.8 ± 0.1"}, {"measurement": "ΔH", "setting": "[1]; 25 °C, pH 7.5, 5 mM CaCl2, first site (n1), mean ± SE of triplicate, SEM", "value": "-19.1 ± 0.4", "unit": "kcal/mol"}, {"measurement": "ΔH", "setting": "[1]; 25 °C, pH 7.5, 5 mM CaCl2, second site (n2), mean ± SE of triplicate, SEM", "value": "-12.1 ± 0.3", "unit": "kcal/mol"}, {"measurement": "ΔH", "setting": "[1]; 25 °C, pH 7.5, 5 mM EGTA, mean ± SE of triplicate, SEM", "value": "-24.7 ± 0.4", "unit": "kcal/mol"}, {"measurement": "TΔS", "setting": "[1]; pH 7.5, 5 mM CaCl2, first site (n1), mean ± SE of triplicate, SEM", "value": "-6.3 ± 0.4", "unit": "kcal/mol"}, {"measurement": "TΔS", "setting": "[1]; pH 7.5, 5 mM CaCl2, second site (n2), mean ± SE of triplicate, SEM", "value": "-4.4 ± 0.3", "unit": "kcal/mol"}, {"measurement": "TΔS", "setting": "[1]; pH 7.5, 5 mM EGTA, mean ± SE of triplicate, SEM", "value": "-16.4 ± 0.4", "unit": "kcal/mol"}, {"measurement": "n (stoichiometry of binding)", "setting": "[3]; 25 °C, 50 mM Tris-HCl, 150 mM KCl pH 7.5, 5 mM CaCl2, mean ± SE of triplicate", "value": "0.7 ± 0.1"}, {"measurement": "ΔH", "setting": "[3]; 25 °C, pH 7.5, 5 mM CaCl2, mean ± SE of triplicate", "value": "-12.6 ± 0.9", "unit": "kcal/mol"}, {"measurement": "TΔS", "setting": "[3]; T 298 K, pH 7.5, 5 mM CaCl2, mean ± SE of triplicate", "value": "-4.4 ± 1.0", "unit": "kcal/mol"}, {"measurement": "n (stoichiometry of binding)", "setting": "[2]; [7]", "value": "0.7 ± 0.1"}, {"measurement": "n (stoichiometry of binding)", "setting": "[2]; 150 mM KCl pH 7.5, 5 mM EGTA, mean ± SE of triplicate", "value": "0.7 ± 0.1"}, {"measurement": "ΔH", "setting": "[2]; [12]", "value": "-15.8 ± 0.1", "unit": "kcal/mol"}, {"measurement": "ΔH", "setting": "[2]; [13]", "value": "-19.3 ± 0.1", "unit": "kcal/mol"}, {"measurement": "TΔS", "setting": "[2]; [12]", "value": "-5.5 ± 0.5", "unit": "kcal/mol"}, {"measurement": "TΔS", "setting": "[2]; [13]", "value": "-11.5 ± 0.7", "unit": "kcal/mol"}]}
{"substance": "TgCEN1 (from UniProt A0A125YHX7)", "values": [{"measurement": "Kd", "setting": "[4]", "value": 9, "unit": "nM"}]}
{"substance": "AEATVRERRVRRAFRAWR [R5]", "values": [{"measurement": "Kd", "setting": "[1]; [5]", "value": "500 ± 100", "unit": "nM"}, {"measurement": "Kd", "setting": "[1]; [10]", "value": "36900 ± 6600", "unit": "nM"}, {"measurement": "Kd", "setting": "[2]; [7]", "value": "900 ± 100", "unit": "nM"}, {"measurement": "Kd", "setting": "[2]; [11]", "value": "47800 ± 4900", "unit": "nM"}]}
{"substance": "LQRTLRDARIRAAWAAWR [R12]", "values": [{"measurement": "Kd", "setting": "[1]; [5]", "value": "500 ± 100", "unit": "nM"}, {"measurement": "Kd", "setting": "[1]; [10]", "value": "29800 ± 3400", "unit": "nM"}, {"measurement": "Kd", "setting": "[2]; [7]", "value": "400 ± 100", "unit": "nM"}, {"measurement": "Kd", "setting": "[2]; [11]", "value": "69900 ± 7000", "unit": "nM"}]}
{"substance": "AEAAAFLLPLHRIFSRWR [R24]", "values": [{"measurement": "Kd", "setting": "[1]; [5]", "value": "3400 ± 600", "unit": "nM"}, {"measurement": "Kd", "setting": "[1]; [6]", "value": "~1000", "unit": "nM"}, {"measurement": "Kd", "setting": "[2]; [7]", "value": "2600 ± 300", "unit": "nM"}]}
